The source of these data is the PolyMetriX glass transition set.

Turning to `*C(=O)Oc1ccc(C(=O)Oc2cccc(OC(=O)c3ccc(OC(=O)c4ccc(*)nc4)cc3)c2)cc1` (repeat unit), the glass transition temperature was found to be 110.00 °C. `*C(=O)Oc1ccc2ccc(OC(=O)c3ccc4c(c3)C(=O)N(c3ccc(Oc5ccc(N6C(=O)c7ccc(*)cc7C6=O)cc5)cc3)C4=O)cc2c1` (repeat unit): the glass transition temperature was determined as 246.00 °C. Take `*C(=O)c1ccc2c(c1)C(=O)N(c1cc(-c3nc4ccccc4[nH]3)cc(N3C(=O)c4ccc(*)cc4C3=O)c1)C2=O` (repeat unit): the glass transition temperature came out at 197.00 °C.

`*C(=O)c1ccc2c(c1)C(=O)N(c1cc(/C=N/C(=S)Nc3ccc(N4C(=O)c5ccc(*)cc5C4=O)cc3)ccc1Cl)C2=O` (repeat unit) registered a glass transition temperature of 274.00 °C. Compound `*C(=O)c1ccc2c(c1)C(=O)N(c1cc(Br)c(Oc3c(Br)cc(N4C(=O)c5ccc(*)cc5C4=O)cc3Br)c(Br)c1)C2=O` (repeat unit) showed a glass transition temperature of 323.00 °C. With `*CCCCCCN1C(=O)c2ccc(C(=O)c3ccc4c(c3)C(=O)N(*)C4=O)cc2C1=O` (repeat unit), the glass transition temperature amounted to 127.00 °C. `*CCCOCCCCOCCCN1C(=O)c2ccc(C(=O)Oc3ccc4cc(OC(=O)c5ccc6c(c5)C(=O)N(*)C6=O)ccc4c3)cc2C1=O` (repeat unit) had a glass transition temperature of 68.00 °C. As for `*OC(=O)c1cccc(C(=O)Oc2ccc3c(c2)Oc2cc(*)ccc2C32OC(=O)c3ccccc32)c1` (repeat unit), the figure is 276.00 °C. To `*O[Si](c1ccccc1)(c1ccccc1)c1cccc(*)c1` (repeat unit) belongs 62.00 °C; to `*Oc1ccc(Oc2cccc(*)n2)c(-c2ccccc2)c1` (repeat unit), 115.00 °C. `*Oc1ccc(Oc2cccc(*)n2)c(C)c1` (repeat unit) came in with a glass transition temperature of 89.00 °C.

For the compound `*Oc1ccc2cc(OC(=O)c3ccc(Oc4ccc(C(*)=O)cc4)cc3)ccc2c1` (repeat unit), the glass transition temperature was found to be 145.00 °C. Consider `*Oc1cccc(C(*)=O)c1` (repeat unit), for which the glass transition temperature came out at 162.00 °C.

For `*Oc1cccc(OC(=O)c2ccc(Oc3ccc(C(*)=O)cc3)cc2)c1` (repeat unit), the glass transition temperature was found to be 159.00 °C. In turn, `*Oc1cccc(OC(=O)c2cccc(C(*)=O)c2)c1` (repeat unit) returned a glass transition temperature of 147.00 °C. As for `*Oc1cccc(Oc2ccc3c(=O)n4c5cc(-c6ccc7c(c6)nc6c8ccc(*)c9cccc(c(=O)n76)c98)ccc5nc4c4cccc2c34)c1` (repeat unit), the figure is 396.50 °C; as for `*Oc1cccc(Oc2cccc(*)c2)c1C#N` (repeat unit), 145.00 °C; as for `*Oc1cccc(Oc2cccc(NC(=O)c3cc(Oc4ccc(C(=O)O)c(C(=O)Nc5cccc(*)c5)c4)ccc3C(=O)O)c2)c1C#N` (repeat unit), 200.10 °C. Compound `*Oc1cccc(Oc2cccc(OC(*)=O)c2)c1` (repeat unit) registered a glass transition temperature of 71.00 °C. Regarding `*Oc1ccccc1C(=O)OC(=O)c1ccccc1OC(=O)c1cccc(C(*)=O)c1` (repeat unit), the glass transition temperature came to 105.00 °C. As to `*c1ccc(-c2ccc(-c3nc4cc(Oc5ccc6nc(-c7ccccc7)c(*)nc6c5)ccc4nc3-c3ccccc3)cc2)cc1` (repeat unit), the glass transition temperature worked out at 410.00 °C. `*c1ccc(-c2ccc(-c3nc4ccc(Oc5ccc6nc(*)c(-c7ccccc7)c(-c7ccccc7)c6c5)cc4c(-c4ccccc4)c3-c3ccccc3)cc2)cc1` (repeat unit) came in with a glass transition temperature of 351.00 °C.

In turn, `*c1ccc(-c2nc3cc(Oc4ccc5nc(-c6ccccc6)c(*)nc5c4)ccc3nc2-c2ccccc2)cc1` (repeat unit) showed a glass transition temperature of 304.00 °C. The compound `*c1ccc(OCCOCCOCCOc2cccc(N3C(=O)c4ccc(Oc5ccc6c(c5)C(=O)N(*)C6=O)cc4C3=O)c2)cc1` (repeat unit) had a glass transition temperature of 107.00 °C. Compound `*c1ccc(OCCOc2cccc(N3C(=O)c4ccc(Oc5ccc6c(c5)C(=O)N(*)C6=O)cc4C3=O)c2)cc1` (repeat unit) displayed a glass transition temperature of 178.50 °C. The compound `*c1ccc(Oc2ccc(-c3ccc(Oc4ccc(N5C(=O)c6cccc(Oc7c(Oc8cccc9c8C(=O)N(*)C9=O)cc(C(C)(C)C)cc7C(C)(C)C)c6C5=O)cc4)cc3)cc2)cc1` (repeat unit) yielded a glass transition temperature of 237.00 °C. On to `*c1ccc(Oc2ccc(-c3nc4ccc(Oc5ccc6nc(*)c(-c7ccccc7)c(-c7ccccc7)c6c5)cc4c(-c4ccccc4)c3-c3ccccc3)cc2)cc1` (repeat unit), for which the glass transition temperature came to 305.00 °C.

Take `*c1ccc(Oc2ccc(C(c3ccc(Oc4ccc(N5C(=O)c6ccc(Oc7ccc8c(c7)C(=O)N(*)C8=O)cc6C5=O)cc4)cc3)(C(F)(F)F)C(F)(F)F)cc2)cc1` (repeat unit): the glass transition temperature was found to be 264.00 °C. As for `*c1ccc(Oc2ccc(N3C(=O)c4ccc(Oc5c(Oc6ccc7c(c6)C(=O)N(*)C7=O)cc(C(C)(C)C)cc5C(C)(C)C)cc4C3=O)cc2)cc1` (repeat unit), the glass transition temperature came to 228.00 °C. Consider `*c1ccc(Oc2ccc(N3C(=O)c4ccc(Oc5ccc6c(c5)C(=O)N(*)C6=O)cc4C3=O)cc2Br)c(Br)c1` (repeat unit), for which the glass transition temperature is 251.00 °C. Compound `*c1ccc(Oc2ccc(N3C(=O)c4ccc(Oc5ccc6c(c5)C(=O)N(c5ncc(*)s5)C6=O)cc4C3=O)cc2)cc1` (repeat unit) came in with a glass transition temperature of 300.00 °C. As to `*c1ccc(Oc2ccc(N3C(=O)c4ccc(Oc5ccc6cc(Oc7ccc8c(c7)C(=O)N(*)C8=O)ccc6c5)cc4C3=O)cc2)cc1` (repeat unit), the glass transition temperature turned out to be 249.00 °C. As for `*c1ccc(Oc2ccc(N3C(=O)c4cccc(Oc5c(Oc6cccc7c6C(=O)N(*)C7=O)cc(C(C)(C)C)cc5C(C)(C)C)c4C3=O)cc2)cc1` (repeat unit), the figure is 238.00 °C; as for `*c1ccc(Oc2cccc(N3C(=O)c4ccc(Oc5cccc6c(Oc7ccc8c(c7)C(=O)N(*)C8=O)cccc56)cc4C3=O)c2)cc1` (repeat unit), 235.00 °C. The compound `*c1ccc(Sc2ccc(Sc3ccc(N4C(=O)c5ccc(Oc6ccc7c(c6)C(=O)N(*)C7=O)cc5C4=O)cc3)s2)cc1` (repeat unit) returned a glass transition temperature of 218.00 °C. In turn, `*c1ccc(Sc2ccc(Sc3ccc(Sc4ccc(Sc5ccc(N6C(=O)c7ccc(Oc8ccc9c(c8)C(=O)N(*)C9=O)cc7C6=O)cc5)s4)s3)s2)cc1` (repeat unit) displayed a glass transition temperature of 158.50 °C. The compound `*c1cccc(C(O)c2cccc(N3C(=O)c4ccc(Oc5ccc6c(c5)C(=O)N(*)C6=O)cc4C3=O)c2)c1` (repeat unit) gave a glass transition temperature of 252.00 °C.

`*c1cccc(C(c2cccc(N3C(=O)c4ccc(Oc5ccc6c(c5)C(=O)N(*)C6=O)cc4C3=O)c2)(C(F)(F)F)C(F)(F)F)c1` (repeat unit): the glass transition temperature is 224.50 °C. To `*c1cccc(N2C(=O)c3ccc(Oc4ccc5c(c4)C4(CC(C)(C)c6ccc(Oc7ccc8c(c7)C(=O)N(*)C8=O)cc64)CC5(C)C)cc3C2=O)c1` (repeat unit) belongs 253.00 °C. For `*c1cccc(Oc2ccc(P(=O)(c3ccccc3)c3ccccc3)c(Oc3cccc(N4C(=O)c5ccc(Oc6ccc7c(c6)C(=O)N(*)C7=O)cc5C4=O)c3)c2)c1` (repeat unit), the glass transition temperature worked out at 212.00 °C.
